This is an account of results in US7709634B2, “Amorphous form of rifaximin and processes for its preparation” (Apotex PharmAchem Inc., priority 2007, dated 2010).

The data set in a line: Polymorphic stability on exposure to ambient humidity, checked by PXRD. The format is physicochemical. The following applies: exposure to ambient humidity for a period of 10 days. From the text:
High yield of amorphous form of rifaximin is isolated by the processes of the present invention and it has high chemical purity and retains acceptable amounts of residual solvents.

`CO[C@H]1/C=C/O[C@@]2(C)Oc3c(C)c(O)c4c(O)c(c5c(nc6cc(C)ccn65)c4c3C2=O)NC(=O)/C(C)=C\C=C\[C@H](C)[C@H](O)[C@@H](C)[C@@H](O)[C@@H](C)[C@H](OC(C)=O)[C@@H]1C` [amorphous form of rifaximin, (2S,16Z,18E,20S,21S,22R,23R,24R,25S,26S,27S,28E)-5,6,21,23,25-pentahydroxy-27-methoxy-2,4,11,16,20,22,24,26-octamethyl-2,7-(epoxypentadeca-[1,11,13]trienimino)benzofuro[4,5-e]pyrido[1,2-α]-benzimidazole-1,15(2H)-dione,25-acetate]: the “polymorphic form after exposure to ambient humidity, as indicated by PXRD spectroscopy” value is “did not change the polymorphic form”.
